Experimental data: patent US12606541B2, “PPARg modulators and methods of use” (Eisai R&D Management Co., Ltd., priority 2020, dated 2026)

Target: T1, His6-TEV-PPARγ-(234-505) (Homo sapiens, UniProt P37231)
T1 construct: The His6-TEV-PPARγ-(234-505) protein for assay was expressed and purified; TEV cleavage site (N); made in house
T1 sequence (P37231 234-505): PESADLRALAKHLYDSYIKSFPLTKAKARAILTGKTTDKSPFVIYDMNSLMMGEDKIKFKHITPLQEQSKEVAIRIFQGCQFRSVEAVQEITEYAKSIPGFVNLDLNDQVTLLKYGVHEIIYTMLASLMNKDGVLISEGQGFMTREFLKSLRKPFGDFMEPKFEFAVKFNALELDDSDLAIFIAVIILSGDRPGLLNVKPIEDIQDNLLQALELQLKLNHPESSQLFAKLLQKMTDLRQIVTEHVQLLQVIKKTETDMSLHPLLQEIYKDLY
Test: TR-FRET Assay to Measure Co-R Peptide Recruitment to PPARγ
Format: biochemical
Settings: Co-R peptide recruitment to PPARγ; read-out: TR-FRET AC50
Protocol: TR-FRET Assay to Measure Co—R Peptide Recruitment to PPARγ
The 2× detection solution contained anti-6×His-Terbium antibody (CisBio) and FITC labeled Co—R peptide (SMRT-ID2 from New England Peptide) at final concentrations of 5 and 200 nM respectively.
In these assay plates, the positive control in column 24 contained 500 nM (final) T0070907 and the negative control in column 23 contained an identical volume of DMSO. Then, 5 μL of 2+ protein working stock or controls were added to the plate and incubated for 20 minutes at room temperature. Reagents additions were performed with either a Combi (Thermo) or Mantis (Formulatory) pipetting device. The incubation was followed by addition of 5 μL of the 2× detection solution. Plates were covered, centrifuged, and incubated for an additional hour. The TR-FRET data was recorded with an Envision plate reader (Perkin Elmer), using settings recommended by Thermo Fisher. The TR-FRET signal of the positive and negative control's recruitment of FITC-Co—R peptide was used to normalize the TR-FRET signal to percent response and to determine the assay Z prime. Experiments were performed in triplicate and analyzed in GraphPad Prism 7.

Row | SMILES | AC50
1 | COc1cc(-c2cc(C(=O)N3CCC(C(=O)Nc4cc(-c5ccccc5)[nH]n4)CC3)n[nH]2)c(Cl)cn1 [1-[5-(5-chloro-2-methoxypyridin-4-yl)-1H-pyrazole-3-carbonyl]-N-(5-phenyl-1H-pyrazol-3-yl)piperidine-4-carboxamide] | > 1 µM
2 | COc1cc(-c2cc(C(=O)N3CCC(C(=O)NC4CCS(=O)(=O)c5ccc(F)cc54)CC3)n[nH]2)c(Cl)cn1 (centres unmarked) [1-[5-(5-chloro-2-methoxypyridin-4-yl)-1H-pyrazole-3-carbonyl]-N-(6-fluoro-1,1-dioxo-3,4-dihydro-2H-1λ^6-benzothiopyran-4-yl)piperidine-4-carboxamide] | > 1 µM
3 | COc1cc(-c2cc(C(=O)N3CCC(C(=O)Nc4cncc(C)n4)CC3)n[nH]2)c(Cl)cn1 [1-[5-(5-chloro-2-methoxypyridin-4-yl)-1H-pyrazole-3-carbonyl]-N-(6-methylpyrazin-2-yl)piperidine-4-carboxamide] | > 1 µM
4 | COc1cc(-c2cc(C(=O)N3CCC(C(=O)Nc4cnnc5ccccc45)CC3)n[nH]2)c(Cl)cn1 [1-[5-(5-chloro-2-methoxypyridin-4-yl)-1H-pyrazole-3-carbonyl]-N-(cinnolin-4-yl)piperidine-4-carboxamide] | > 1 µM
5 | COc1cc(-c2cc(C(=O)N3CCC(C(=O)NCc4nc5c(cnn5C)c(=O)[nH]4)CC3)n[nH]2)c(Cl)cn1 [1-[5-(5-chloro-2-methoxypyridin-4-yl)-1H-pyrazole-3-carbonyl]-N-({1-methyl-4-oxo-1H,4H,5H-pyrazolo[3,4-d]pyrimidin-6-yl}methyl)piperidine-4-carboxamide] | > 1 µM
6 | COc1cc(-c2cc(C(=O)N3CCC(C(=O)NCc4ccn5c(C)c(C)nc5c4)CC3)n[nH]2)c(Cl)cn1 [1-[5-(5-chloro-2-methoxypyridin-4-yl)-1H-pyrazole-3-carbonyl]-N-({2,3-dimethylimidazo[1,2-a]pyridin-7-yl}methyl)piperidine-4-carboxamide] | > 1 µM
7 | COc1cc(-c2cc(C(=O)N3CCC(C(=O)NCc4nc5cccnc5[nH]4)CC3)n[nH]2)c(Cl)cn1 [1-[5-(5-chloro-2-methoxypyridin-4-yl)-1H-pyrazole-3-carbonyl]-N-({3H-imidazo[4,5-b]pyridin-2-yl}methyl)piperidine-4-carboxamide] | > 1 µM
8 | COc1cc(-c2cc(C(=O)N3CCC(C(=O)NCc4c(C)nc5cc(=O)[nH]n5c4C)CC3)n[nH]2)c(Cl)cn1 [1-[5-(5-chloro-2-methoxypyridin-4-yl)-1H-pyrazole-3-carbonyl]-N-({5,7-dimethyl-2-oxo-1H,2H-pyrazolo[1,5-a]pyrimidin-6-yl}methyl)piperidine-4-carboxamide] | > 1 µM
9 | COc1cc(-c2cc(C(=O)N3CCC(C(=O)NCc4ccc5ncnn5c4)CC3)n[nH]2)c(Cl)cn1 [1-[5-(5-chloro-2-methoxypyridin-4-yl)-1H-pyrazole-3-carbonyl]-N-({[1,2,4]triazolo[1,5-a]pyridin-6-yl}methyl)piperidine-4-carboxamide] | > 1 µM
10 | COc1cc(-c2cc(C(=O)N3CCC(C(=O)NCc4nnc5ccccn45)CC3)n[nH]2)c(Cl)cn1 [1-[5-(5-chloro-2-methoxypyridin-4-yl)-1H-pyrazole-3-carbonyl]-N-({[1,2,4]triazolo[4,3-a]pyridin-3-yl}methyl)piperidine-4-carboxamide] | > 1 µM
11 | COc1cc(-c2cc(C(=O)N3CCC(C(=O)NCc4ccc5nncn5c4)CC3)n[nH]2)c(Cl)cn1 [1-[5-(5-chloro-2-methoxypyridin-4-yl)-1H-pyrazole-3-carbonyl]-N-({[1,2,4]triazolo[4,3-a]pyridin-6-yl}methyl)piperidine-4-carboxamide] | > 1 µM
12 | COc1cc(-c2cc(C(=O)N3CCC(C(=O)NCc4cn5ccnc5cn4)CC3)n[nH]2)c(Cl)cn1 [1-[5-(5-chloro-2-methoxypyridin-4-yl)-1H-pyrazole-3-carbonyl]-N-({imidazo[1,2-a]pyrazin-6-yl}methyl)piperidine-4-carboxamide] | > 1 µM
13 | COc1cc(-c2cc(C(=O)N3CCC(C(=O)NCc4ccn5ccnc5c4)CC3)n[nH]2)c(Cl)cn1 [1-[5-(5-chloro-2-methoxypyridin-4-yl)-1H-pyrazole-3-carbonyl]-N-({imidazo[1,2-a]pyridin-7-yl}methyl)piperidine-4-carboxamide] | > 1 µM
14 | COc1cc(-c2cc(C(=O)N3CCC(C(=O)NCc4cn5cccnc5n4)CC3)n[nH]2)c(Cl)cn1 [1-[5-(5-chloro-2-methoxypyridin-4-yl)-1H-pyrazole-3-carbonyl]-N-({imidazo[1,2-a]pyrimidin-2-yl}methyl)piperidine-4-carboxamide] | > 1 µM
15 | COc1cc(-c2cc(C(=O)N3CCC(C(=O)NCc4cnc5nccn5c4)CC3)n[nH]2)c(Cl)cn1 [1-[5-(5-chloro-2-methoxypyridin-4-yl)-1H-pyrazole-3-carbonyl]-N-({imidazo[1,2-a]pyrimidin-6-yl}methyl)piperidine-4-carboxamide] | > 1 µM
16 | COc1cc(-c2cc(C(=O)N3CCC(C(=O)NC4(c5cccc(Cl)c5)CC4)CC3)n[nH]2)c(Cl)cn1 [1-[5-(5-chloro-2-methoxypyridin-4-yl)-1H-pyrazole-3-carbonyl]-N-[1-(3-chlorophenyl)cyclopropyl]piperidine-4-carboxamide] | > 1 µM
17 | COc1cc(-c2cc(C(=O)N3CCC(C(=O)NC(C)C4COC4)CC3)n[nH]2)c(Cl)cn1 (centres unmarked) [1-[5-(5-chloro-2-methoxypyridin-4-yl)-1H-pyrazole-3-carbonyl]-N-[1-(oxetan-3-yl)ethyl]piperidine-4-carboxamide] | > 1 µM
18 | COc1cc(-c2cc(C(=O)N3CCC(C(=O)NC(C)c4cnccn4)CC3)n[nH]2)c(Cl)cn1 (centres unmarked) [1-[5-(5-chloro-2-methoxypyridin-4-yl)-1H-pyrazole-3-carbonyl]-N-[1-(pyrazin-2-yl)ethyl]piperidine-4-carboxamide] | > 1 µM
19 | COc1cc(-c2cc(C(=O)N3CCC(C(=O)NC(C)c4ncccn4)CC3)n[nH]2)c(Cl)cn1 (centres unmarked) [1-[5-(5-chloro-2-methoxypyridin-4-yl)-1H-pyrazole-3-carbonyl]-N-[1-(pyrimidin-2-yl)ethyl]piperidine-4-carboxamide] | > 1 µM
20 | COc1cc(-c2cc(C(=O)N3CCC(C(=O)NCCn4ccccc4=O)CC3)n[nH]2)c(Cl)cn1 [1-[5-(5-chloro-2-methoxypyridin-4-yl)-1H-pyrazole-3-carbonyl]-N-[2-(2-oxo-1,2-dihydropyridin-1-yl)ethyl]piperidine-4-carboxamide] | > 1 µM
21 | COc1cc(-c2cc(C(=O)N3CCC(C(=O)NC(C)(C)c4cccc(Cl)c4)CC3)n[nH]2)c(Cl)cn1 [1-[5-(5-chloro-2-methoxypyridin-4-yl)-1H-pyrazole-3-carbonyl]-N-[2-(3-chlorophenyl)propan-2-yl]piperidine-4-carboxamide] | > 1 µM
22 | COc1cc(-c2cc(C(=O)N3CCC(C(=O)NC4CC4C(F)(F)F)CC3)n[nH]2)c(Cl)cn1 (centres unmarked) [1-[5-(5-chloro-2-methoxypyridin-4-yl)-1H-pyrazole-3-carbonyl]-N-[2-(trifluoromethyl)cyclopropyl]piperidine-4-carboxamide] | > 1 µM
23 | COc1cc(-c2cc(C(=O)N3CCC(C(=O)Nc4cc(C(F)(F)F)no4)CC3)n[nH]2)c(Cl)cn1 [1-[5-(5-chloro-2-methoxypyridin-4-yl)-1H-pyrazole-3-carbonyl]-N-[3-(trifluoromethyl)-1,2-oxazol-5-yl]piperidine-4-carboxamide] | > 1 µM
